According to patent US20240174618A1, “SUBSTITUTED (2-HETEROARYLOXYPHENYL)SULFONATES, SALTS THEREOF AND THEIR USE AS HERBICIDAL AGENTS” (Bayer Aktiengesellschaft, priority 2021, published 2024):

Experiments:
Format in all cases: in vivo
[1] = tested on: Amaranthus retroflexus (AMARE); experiment: A. Herbicidal pre-emergence efficacy, AMARE
Text: (§1) Seeds of mono- and dicotyledonous weed plants were placed in plastic pots in sandy loam soil (doubly sown with one species each of mono- or dicotyledonous weed plants per pot) and covered with soil. The compounds of the invention, formulated in the form of wettable powders (WP) or as emulsion concentrates (EC), were then applied onto the surface of the covering soil as aqueous suspension or emulsion with addition of 0.5% additive at a water application rate of 600 liters per hectare (converted). After the treatment, the pots were placed in a greenhouse and kept under good growth conditions for the test plants. After about 3 weeks, the efficacy of the preparations was scored visually in comparison with untreated controls as percentages.
(§2) For example, • 100% efficacy=plants have died, • 0% efficacy=like untreated control plants.
(§3) Tables A1a to A12c below show the effects of selected compounds of the general formula (I) according to table 1 on various harmful plants at an application rate corresponding to 1280 g/ha or less, which were obtained by the experimental procedure mentioned above.

[2] = tested on: Abutilon theophrasti (ABUTH); experiment: B. Herbicidal post-emergence efficacy, ABUTH; details: 1280 g/ha, rated visually after about 3 weeks
Method: (§4) Seeds of mono- and dicotyledonous weed plants were placed in plastic pots in sandy loam soil (doubly sown with in each case one species of mono- or dicotyledonous weed plants per pot), covered with soil and cultivated in a greenhouse under controlled growth conditions. 2 to 3 weeks after sowing, the test plants were treated at the one-leaf stage. The compounds of the invention, formulated in the form of wettable powders (WP) or as emulsion concentrates (EC), were applied onto the green parts of the plants as aqueous suspension or emulsion with addition of 0.5% additive at a water application rate of 600 liters per hectare (converted). After the test plants had been kept in the greenhouse under optimum growth conditions for about 3 weeks, the activity of the preparations was rated visually in comparison to untreated controls.
(§5) For example, • 100% efficacy=plants have died, • 0% efficacy=like untreated control plants
(§6) Tables B1a to B12c below show the effects of selected inventive compounds of the general formula (I) according to table 1 on various harmful plants at an application rate corresponding to 1280 g/ha or less, which were obtained by the experimental procedure mentioned above.

[3] = tested on: Stellaria media (STEME); experiment: B. Herbicidal post-emergence efficacy, STEME
Method: as §4, §5, §6

[4] = tested on: Poa annua (POAAN); experiment: B. Herbicidal post-emergence efficacy, POAAN; details: 1280 g/ha
Method: as §4, §5, §6

[5] = tested on: Kochia scoparia (KCHSC); experiment: B. Herbicidal post-emergence efficacy, KCHSC; details: for Post-emergence efficacy against KCHSC: 1280 g/ha; for Post-emergence efficacy against KCHSC in %: rated visually after about 3 weeks
Method: as §4, §5, §6

[6] = tested on: Veronica persica (VERPE); experiment: B. Herbicidal post-emergence efficacy, VERPE
Method: as §4, §5, §6

[7] = tested on: Amaranthus retroflexus (AMARE); experiment: B. Herbicidal post-emergence efficacy, AMARE
Method: as §4, §5, §6

[8] = tested on: Kochia scoparia (KCHSC); experiment: A. Herbicidal pre-emergence efficacy, KCHSC
Text: as §1, §2, §3

[9] = tested on: Stellaria media (STEME); experiment: A. Herbicidal pre-emergence efficacy, STEME
Text: as §1, §2, §3

[10] = tested on: Poa annua (POAAN); experiment: A. Herbicidal pre-emergence efficacy, POAAN
Text: as §1, §2, §3

[11] = tested on: Abutilon theophrasti (ABUTH); experiment: A. Herbicidal pre-emergence efficacy, ABUTH; details: 1280 g/ha; scored visually after about 3 weeks vs untreated controls
Text: as §1, §2, §3

[12] = tested on: Echinochloa crus-galli (ECHCG); experiment: A. Herbicidal pre-emergence efficacy, ECHCG; details: 1280 g/ha; scored visually after about 3 weeks vs untreated controls
Text: as §1, §2, §3

[13] = tested on: Veronica persica (VERPE); experiment: A. Herbicidal pre-emergence efficacy, VERPE; details: 1280 g/ha
Text: as §1, §2, §3

[14] = tested on: Setaria viridis (SETVI); experiment: A. Herbicidal pre-emergence efficacy, SETVI
Text: as §1, §2, §3

[15] = tested on: Digitaria sanguinalis (DIGSA); experiment: A. Herbicidal pre-emergence efficacy, DIGSA; details: scored visually after about 3 weeks vs untreated controls
Text: as §1, §2, §3

[16] = pre-emergence, dosage 1280 g/ha

| SMILES | Pre-emergence efficacy against AMARE in % ([1]; 1280 g/ha) [%] | Post-emergence efficacy against ABUTH in % [2] [%] | Post-emergence efficacy against STEME ([3]; 1280 g/ha) [%] | Post-emergence efficacy against POAAN [4] [%] | Post-emergence efficacy against KCHSC [5] [%] | Post-emergence efficacy against VERPE ([6]; 320 g/ha) [%] | Post-emergence efficacy against VERPE ([6]; 1280 g/ha) [%] | Post-emergence efficacy against AMARE ([7]; 1280 g/ha) [%] | Pre-emergence efficacy against KCHSC [8, 16] [%] | Pre-emergence efficacy against STEME ([9]; dosage 1280 g/ha) [%] | Pre-emergence efficacy against AMARE in % ([1]; 320 g/ha) [%] | Pre-emergence efficacy against POAAN ([10]; dosage 320 g/ha) [%] | Pre-emergence efficacy against POAAN ([10]; dosage 1280 g/ha) [%] | Post-emergence efficacy against KCHSC in % ([5]; 320 g/ha) [%] | Pre-emergence efficacy against ABUTH [11] [%] | Pre-emergence efficacy against ECHCG [12] [%] | Pre-emergence efficacy against VERPE in % [13] [%] | Post-emergence efficacy against AMARE ([7]; 80 g/ha) [%] | Post-emergence efficacy against AMARE ([7]; 320 g/ha) [%] | Pre-emergence efficacy against DIGSA ([15]; 1280 g/ha) [%] | other results |
| --- | --- | --- | --- | --- | --- | --- | --- | --- | --- | --- | --- | --- | --- | --- | --- | --- | --- | --- | --- | --- | --- |
| O=S(=O)(CC(F)(F)F)Oc1ccccc1Oc1ncc(Cl)cn1 [Example I-4] | 100 | 90 | 90 | 90 | 90 | 90 | 100 | 90 | 100 | – | – | – | – | – | – | – | – | – | – | – | – |
| CCCCS(=O)(=O)Oc1c(OC)cccc1Oc1ncc(Cl)cn1 [Example I-17] | – | – | – | – | – | – | – | – | – | 90 | – | – | – | – | – | – | – | – | – | – | – |
| O=S(=O)(Oc1ccccc1Oc1ncc(Cl)cn1)C1CC1 [Example I-21] | 100 | – | 100 | 100 | 100 | 100 | 100 | 100 | 100 | 100 | 100 | 100 | 100 | 100 | 100 | 100 | 90 | 90 | 100 | 100 | Pre-emergence efficacy against AMARE in % ([1]; 80 g/ha): 100%; Pre-emergence efficacy against STEME ([9]; dosage 320 g/ha): 100%; Post-emergence efficacy against STEME ([3]; 320 g/ha): 90%; Post-emergence efficacy against KCHSC in % ([5]; 80 g/ha): 90%; Post-emergence efficacy against VERPE ([6]; 80 g/ha): 90%; Pre-emergence efficacy against SETVI ([14]; dosage 1280 g/ha): 100%; Pre-emergence efficacy against DIGSA ([15]; 320 g/ha): 100%; Pre-emergence efficacy against KCHSC ([8]; 80 g/ha, scored visually after about 3 weeks vs untreated controls): 90%; Pre-emergence efficacy against KCHSC ([8]; pre-emergence, dosage 320 g/ha): 100% |
| O=S(=O)(CCCCl)Oc1ccccc1Oc1ccc(Cl)cn1 [Example I-27] | 90 | – | 90 | – | 90 | 90 | 90 | 100 | 100 | 90 | 90 | 90 | 90 | – | 90 | 90 | 90 | – | 90 | 100 | Pre-emergence efficacy against SETVI ([14]; dosage 320 g/ha): 100%; Pre-emergence efficacy against SETVI ([14]; dosage 1280 g/ha): 100%; Pre-emergence efficacy against DIGSA ([15]; 320 g/ha): 90% |
| N#Cc1ccc(Oc2ccccc2OS(=O)(=O)CCCCl)nc1 [Example I-58] | – | 90 | – | – | 90 | – | 90 | 90 | 90 | – | – | – | – | – | 90 | – | – | 90 | 90 | 90 | – |
| O=[N+]([O-])c1cnc(Oc2ccccc2OS(=O)(=O)CCCCl)c(F)c1 [Example I-61] | – | – | 90 | – | 90 | – | 90 | 90 | – | – | – | – | – | 90 | – | 100 | – | 90 | 90 | – | – |
